Source: PubChem BioAssay AID330 (DTP/NCI, 2004)
Several values for one entry are separate records, joined by “and”; a condition that tells them apart may be missing. Identical values can stand only once. Toxic doses and inconclusive results are not listed.

Test system: P388 leukemia ip, CD2F1 mice, survival T/C
Experiment: NCI In Vivo Anticancer Drug Screen. Data for tumor model P388 Leukemia (intraperitoneal) in CD2F1 (CDF1) mice
Settings: endpoint: median survival time, higher = longer survival
Method in brief: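 Mice carrying the transplanted tumor received test compound or vehicle. Survival was recorded in each group, and the value is the treated-group measurement divided by that of the vehicle-treated control group.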

[1] = dose: 12.5 mg/kg/injection, schedule: Q01DX005 (ip), vehicle: Klucel (hydroxypropylcellulose) (HPC)
[2] = dose: 25.0 mg/kg/injection, schedule: Q01DX005 (ip), vehicle: Klucel (hydroxypropylcellulose) (HPC)
[3] = dose: 50.0 mg/kg/injection, schedule: Q01DX005 (ip), vehicle: Klucel (hydroxypropylcellulose) (HPC)
[4] = dose: 100.0 mg/kg/injection, schedule: Q01DX005 (ip), vehicle: Klucel (hydroxypropylcellulose) (HPC)
[5] = dose: 200.0 mg/kg/injection, schedule: Q01DX005 (ip), vehicle: Klucel (hydroxypropylcellulose) (HPC)

## c1cc2cc3c(cc2[nH]1)OCO3
dose: 50.0 mg/kg/injection, schedule: Q01DX005 (ip), vehicle: Klucel + Tween-80
  T/C: 95 % of control
dose: 100.0 mg/kg/injection, schedule: Q01DX005 (ip), vehicle: Klucel + Tween-80
  T/C: 90 % of control
dose: 200.0 mg/kg/injection, schedule: Q01DX005 (ip), vehicle: Klucel + Tween-80
  T/C: 95 % of control

## CCOC(=C\C=C\C1=[N+](C)c2ccccc2C1(C)C)/C=C/C=C1/N(C)c2ccccc2C1(C)C
dose: 1.56 mg/kg/injection, schedule: Q01DX009 (ip), vehicle: saline with Tween-80
  T/C: 117 % of control
dose: 3.13 mg/kg/injection, schedule: Q01DX009 (ip), vehicle: saline with Tween-80
  T/C: 114 % of control

## Cc1ccc2cccc(CC(=O)NN)c2c1
dose: 60.0 mg/kg/injection, schedule: Q01DX005 (ip), vehicle: saline with Tween-80
  T/C: 104 % of control
dose: 120.0 mg/kg/injection, schedule: Q01DX005 (ip), vehicle: saline with Tween-80
  T/C: 97 % of control

## Cc1cc(N/N=C/c2ccc(F)cc2)c2cc3c(cc2n1)OCO3
[1]
  T/C: 104 % of control
[2]
  T/C: 104 % of control
[3]
  T/C: 107 % of control and 109 % of control

## [B-]([C+]1CCCCC1)N1C=CC=CC1
[3]
  T/C: 100 % of control
[4]
  T/C: 98 % of control
[5]
  T/C: 97 % of control

## COc1cc(OC)c(-c2oc3c(OC)c(OC)c(OC)c(OC)c3c(=O)c2OC)cc1OC
dose: 15.0 mg/kg/injection, schedule: Q01DX005 (ip), vehicle: Klucel (hydroxypropylcellulose) (HPC)
  T/C: 94 % of control
dose: 30.0 mg/kg/injection, schedule: Q01DX005 (ip), vehicle: Klucel (hydroxypropylcellulose) (HPC)
  T/C: 102 % of control
dose: 60.0 mg/kg/injection, schedule: Q01DX005 (ip), vehicle: Klucel (hydroxypropylcellulose) (HPC)
  T/C: 92 % of control
dose: 120.0 mg/kg/injection, schedule: Q01DX005 (ip), vehicle: Klucel (hydroxypropylcellulose) (HPC)
  T/C: 90 % of control

## C[Si](C)(C)CC[Si]12OCCN(CCO1)C1CCCCC1O2 (stereo not drawn)
[3]
  T/C: 93 % of control
[4]
  T/C: 101 % of control
[5]
  T/C: 97 % of control

## N/C(=N\[N+](=O)[O-])N1CCCCCC1
[1]
  T/C: 106 % of control
[2]
  T/C: 100 % of control
[3]
  T/C: 107 % of control

## CCCCCC(O)CCCCC
dose: 100.0 mg/kg/injection, schedule: Q04DX003 (ip), vehicle: saline with Tween-80
  T/C: 100 % of control
dose: 200.0 mg/kg/injection, schedule: Q04DX003 (ip), vehicle: saline with Tween-80
  T/C: 109 % of control
dose: 400.0 mg/kg/injection, schedule: Q04DX003 (ip), vehicle: saline with Tween-80
  T/C: 100 % of control

## Cn1cccc/c1=N\N
dose: 100.0 mg/kg/injection, schedule: Q04DX002 (ip), vehicle: saline
  T/C: 100 % of control
dose: 200.0 mg/kg/injection, schedule: Q04DX002 (ip), vehicle: saline
  T/C: 99 % of control

## N/C(=N\OC(=O)Nc1cccc(Cl)c1)C(Cl)(Cl)Cl
dose: 25.0 mg/kg/injection, schedule: Q01DX009 (ip), vehicle: Klucel (hydroxypropylcellulose) (HPC)
  T/C: 98 % of control
dose: 50.0 mg/kg/injection, schedule: Q01DX009 (ip), vehicle: Klucel (hydroxypropylcellulose) (HPC)
  T/C: 113 % of control
dose: 100.0 mg/kg/injection, schedule: Q01DX009 (ip), vehicle: Klucel (hydroxypropylcellulose) (HPC)
  T/C: 112 % of control

## CCN(CC)CC(C)(C)C(=O)/C=C/c1ccc(Cl)cc1
dose: 60.0 mg/kg/injection, schedule: Q01DX005 (ip), vehicle: saline
  T/C: 110 % of control
dose: 120.0 mg/kg/injection, schedule: Q01DX005 (ip), vehicle: saline
  T/C: 116 % of control

## CCC12OCCN1CCO2
dose: 200.0 mg/kg/injection, schedule: Q01DX009 (ip), vehicle: water
  T/C: 100 % of control
dose: 400.0 mg/kg/injection, schedule: Q01DX009 (ip), vehicle: water
  T/C: 100 % of control
dose: 800.0 mg/kg/injection, schedule: Q01DX009 (ip), vehicle: water
  T/C: 102 % of control
dose: 1600.0 mg/kg/injection, schedule: Q01DX009 (ip), vehicle: water
  T/C: 106 % of control

## COc1cc(NS(C)(=O)=O)ccc1Nc1c2ccc([N+](=O)[O-])cc2nc2c(C)c(C)ccc12
dose: 0.04 mg/kg/injection, schedule: Q01DX009 (ip), vehicle: saline with Tween-80
  T/C: 120 % of control
dose: 0.07 mg/kg/injection, schedule: Q01DX009 (ip), vehicle: saline with Tween-80
  T/C: 120 % of control
dose: 1.13 mg/kg/injection, schedule: Q01DX009 (ip), vehicle: saline with Tween-80
  T/C: 157 % of control
dose: 6.25 mg/kg/injection, schedule: Q01DX009 (ip), vehicle: saline with Tween-80
  T/C: 254 % of control
dose: 8.8 mg/kg/injection, schedule: Q04DX003 (ip), vehicle: saline with Tween-80
  T/C: 218 % of control
dose: 12.5 mg/kg/injection, schedule: Q01DX009 (ip), vehicle: saline with Tween-80
  T/C: 291 % of control
dose: 13.2 mg/kg/injection, schedule: Q04DX003 (ip), vehicle: saline with Tween-80
  T/C: 209 % of control
dose: 20.0 mg/kg/injection, schedule: Q04DX003 (ip), vehicle: saline with Tween-80
  T/C: 231 % of control
dose: 30.0 mg/kg/injection, schedule: Q04DX003 (ip), vehicle: saline with Tween-80
  T/C: 263 % of control

## CC[C@@]1(O)C(=O)OCc2c1cc1n(c2=O)Cc2cc3cc(OC)ccc3nc2-1
dose: 1.57 mg/kg/injection, schedule: Q04DX003 (ip), vehicle: other
  T/C: 165 % of control
dose: 3.13 mg/kg/injection, schedule: Q04DX003 (ip), vehicle: other
  T/C: 98 % of control
